# Reference: patent US6890736B1, “Methods for producing proteins in cultured cells” (Immunex Corporation, priority 2002, dated 2005)
# Values joined by “and” are separate entries in the source; they are usually repeats but may differ in a detail not shown here. Identical values can stand only once.
# Assays:
# Type in all cases: cell-based, Chinese hamster
# [1] = test system: cell line 25H9 (CHO cells that produce IL-1R-II protein); test: Example 2: optimization of temperature and decitabine concentration, IL-1R-II production
# Method: (§1) About 2×10^6 cells of cell line 25H9 were inoculated into 30 milliliters of serum-free medium and incubated at the temperatures indicated in Table 1 in vented shake flasks. At the times indicated in Table 1, samples were taken from each flask to determine IL-1R-II titer, cell number, and cell viability. IL-1R-II protein titer was determined by ELISA assay. Cell number was determined by counting cells in a hemocytometer. Cell viability was determined by trypan blue staining and counting stained cells in a hemocytometer. Cumulative viable cell density (CVCD) is the area under the curve of a plot of the viable cell density versus time (in units of cells/ml/day). Productivity (pg of IL-1R-II/cell/day) was determined by dividing the protein titer on a particular day by the CVCD on the same day. Cells were fed with amino acids on days 2 and 5, and dextrose was added periodically in order to maintain levels above 2.0 g/L. All samples were done in duplicate, and the data shown is an average value.
# To determine an optimum temperature and decitabine concentration, three temperatures (30° C., 31° C., and 32° C.) and three decitabine concentrations (10 μM, 15 μM, and 20 μM) were tested. A 31° C. culture containing 0.5 mM sodium butyrate was grown as a control. […] See e.g. International Application Nos. WO 89/06686 and WO 87/05626. The experiment was performed as in Example 1 except that the inducer concentrations, temperatures, and days at which data was collected are as indicated in Table 2 and FIG. 1.
# [2] = test system: cell line 25H9 (CHO cells); test: Example 3: cell number (Guava PCA Cytometer); details: 31° C., 10 μM
# Method: as §1
# (§2) The following experiment compares the effects of 5-bromo-2′-deoxycytidine 5′-monophosphate and 5-aza-2′-deoxycytidine on induction of protein production. The experiment was done as described in Example 1 with the following exceptions. All cultures were incubated at 31° C., and cell number and viability were determined using a Guava PCA Cytometer (available from Guava Technologies, Hayward, Calif., USA). Samples were done in triplicate.
# [3] = test system: cell line 25H9 (CHO cells that produce IL-1R-II protein); test: Example 3: induction with 5-bromo-2′-deoxycytidine 5′-monophosphate, IL-1R-II production; details: 31° C., 10 μM
# Method: as §1, §2
# [4] = 30° C., 10 μM decitabine, day 3
# [5] = 30° C., 10 μM decitabine, day 6
# [6] = 30° C., 10 μM decitabine, day 8
# [7] = 30° C., 15 μM decitabine, day 3
# [8] = 30° C., 15 μM decitabine, day 6
# [9] = 30° C., 20 μM decitabine, day 3
# [10] = 30° C., 20 μM decitabine, day 6
# [11] = 30° C., 20 μM decitabine, day 8
# [12] = 31° C., 10 μM decitabine, day 3
# [13] = 31° C., 10 μM decitabine, day 6
# [14] = 31° C., 10 μM decitabine, day 8
# [15] = 31° C., 15 μM decitabine, day 3
# [16] = 31° C., 15 μM decitabine, day 6
# [17] = 31° C., 15 μM decitabine, day 8
# [18] = 31° C., 20 μM decitabine, day 3
# [19] = 31° C., 20 μM decitabine, day 6
# [20] = 31° C., 20 μM decitabine, day 8
# [21] = 32° C., 10 μM decitabine, day 3
# [22] = 32° C., 10 μM decitabine, day 6
# [23] = 32° C., 10 μM decitabine, day 8
# [24] = 32° C., 15 μM decitabine, day 3
# [25] = 32° C., 15 μM decitabine, day 6
# [26] = 32° C., 20 μM decitabine, day 3
# [27] = 32° C., 20 μM decitabine, day 6
# [28] = 32° C., 20 μM decitabine, day 8
smiles,measurement,setting,value
"Nc1ncn([C@H]2C[C@H](O)[C@@H](CO)O2)c(=O)n1 [decitabine, 5-aza-2′-deoxycytidine]",IL-1R-II produced at 31° C. versus 30° C. or 32° C. (FIG. 1),"[1]; 10 μM decitabine, 8 days",more IL-1R-II
same,IL-1R-II titer in 20 μM versus 10 μM or 15 μM decitabine,[1]; 30° C.,higher titer of IL-1R-II
same,IL1R-II Titer,"[1]; 30° C., 10 μM decitabine, day 0",0.0 µg/mL
same,IL1R-II Titer,[1]; [4],68.2 µg/mL
same,Productivity,[1]; [4],9.2 pg IL-1R-II/cell/day
same,IL1R-II Titer,[1]; [5],156.5 µg/mL
same,Productivity,[1]; [5],10.9 pg IL-1R-II/cell/day
same,IL1R-II Titer,[1]; [6],260.5 µg/mL
same,Productivity,[1]; [6],14.4 pg IL-1R-II/cell/day
same,IL1R-II Titer,"[1]; 30° C., 15 μM decitabine, day 0",0.0 µg/mL
same,IL1R-II Titer,[1]; [7],77.2 µg/mL
same,Productivity,[1]; [7],11.3 pg IL-1R-II/cell/day
same,IL1R-II Titer,[1]; [8],173.0 µg/mL
same,Productivity,[1]; [8],12.4 pg IL-1R-II/cell/day
same,IL1R-II Titer,"[1]; 30° C., 15 μM decitabine, day 8",283.0 µg/mL
same,IL1R-II Titer,"[1]; 30° C., 20 μM decitabine, day 0",0.0 µg/mL
same,IL1R-II Titer,[1]; [9],83.6 µg/mL
same,Productivity,[1]; [9],10.6 pg IL-1R-II/cell/day
same,IL1R-II Titer,[1]; [10],219.0 µg/mL
same,Productivity,[1]; [10],13.4 pg IL-1R-II/cell/day
same,IL1R-II Titer,[1]; [11],346.0 µg/mL
same,Productivity,[1]; [11],16.9 pg IL-1R-II/cell/day
same,IL-1R-II titer versus culture containing 0.5 mM sodium butyrate,"[1]; 31° C., 10 μM decitabine, 8 days",higher titer
same,IL1R-II Titer,"[1]; 31° C., 10 μM decitabine, day 0",0.0 µg/mL
same,IL1R-II Titer,[1]; [12],164.0 µg/mL
same,Productivity,[1]; [12],18.8 pg IL-1R-II/cell/day
same,IL1R-II Titer,[1]; [13],448.5 µg/mL
same,Productivity,[1]; [13],21.3 pg IL-1R-II/cell/day
same,IL1R-II Titer,[1]; [14],1087 µg/mL and 1087.0 µg/mL
same,Productivity,[1]; [14],38.1 pg IL-1R-II/cell/day
same,IL1R-II Titer,"[1]; 31° C., 15 μM decitabine, day 0",0.0 µg/mL
same,IL1R-II Titer,[1]; [15],174.0 µg/mL
same,Productivity,[1]; [15],22.0 pg IL-1R-II/cell/day
same,IL1R-II Titer,[1]; [16],440.0 µg/mL
same,Productivity,[1]; [16],22.9 pg IL-1R-II/cell/day
same,IL1R-II Titer,[1]; [17],718.0 µg/mL
same,Productivity,[1]; [17],27.8 pg IL-1R-II/cell/day
same,IL1R-II Titer,"[1]; 31° C., 20 μM decitabine, day 0",0.0 µg/mL
same,IL1R-II Titer,[1]; [18],162.0 µg/mL
same,Productivity,[1]; [18],17.6 pg IL-1R-II/cell/day
same,IL1R-II Titer,[1]; [19],426.0 µg/mL
same,Productivity,[1]; [19],19.6 pg IL-1R-II/cell/day
same,IL1R-II Titer,[1]; [20],774.5 µg/mL
same,Productivity,[1]; [20],27.1 pg IL-1R-II/cell/day
same,productivity on a per cell basis versus control culture grown in butyrate,"[1]; 31° C., all cultures grown in decitabine","comparable to, and in some cases greater than"
same,IL-1R-II produced in 10 μM versus 15 μM or 20 μM decitabine,[1]; 32° C.,produced more IL-1R-II
same,IL1R-II Titer,"[1]; 32° C., 10 μM decitabine, day 0",0.0 µg/mL
same,IL1R-II Titer,[1]; [21],186.0 µg/mL
same,Productivity,[1]; [21],23.1 pg IL-1R-II/cell/day
same,IL1R-II Titer,[1]; [22],407.0 µg/mL
same,Productivity,[1]; [22],21.5 pg IL-1R-II/cell/day
same,IL1R-II Titer,[1]; [23],610.5 µg/mL
same,Productivity,[1]; [23],24.5 pg IL-1R-II/cell/day
same,IL1R-II Titer,"[1]; 32° C., 15 μM decitabine, day 0",0.0 µg/mL
same,IL1R-II Titer,[1]; [24],189.0 µg/mL
same,Productivity,[1]; [24],23.5 pg IL-1R-II/cell/day
same,IL1R-II Titer,[1]; [25],410.0 µg/mL
same,Productivity,[1]; [25],22.5 pg IL-1R-II/cell/day
same,IL1R-II Titer,"[1]; 32° C., 15 μM decitabine, day 8",478.0 µg/mL
same,IL1R-II Titer,"[1]; 32° C., 20 μM decitabine, day 0",0.0 µg/mL
same,IL1R-II Titer,[1]; [26],184.5 µg/mL
same,Productivity,[1]; [26],22.2 pg IL-1R-II/cell/day
same,IL1R-II Titer,[1]; [27],492.0 µg/mL
same,Productivity,[1]; [27],26.3 pg IL-1R-II/cell/day
same,IL1R-II Titer,[1]; [28],488.5 µg/mL
same,Productivity,[1]; [28],20.7 pg IL-1R-II/cell/day
same,Viable Cell Density,[2]; day 0,2.4 cells/ml × 10^6
same,Viable Cell Density,[2]; day 2,2.4 cells/ml × 10^6
same,Viable Cell Density,[2]; day 5,1.8 cells/ml × 10^6
same,Viable Cell Density,[2]; day 7,1.1 cells/ml × 10^6
same,Viable Cell Density,[2]; day 9,0.9 cells/ml × 10^6
same,Titer of IL-1R-II,[3]; day 0,0.0 mg/L
same,Productivity,[3]; day 2,12.2 pg of IL-1RII/cell/day
same,Titer of IL-1R-II,[3]; day 2,58.5 mg/L
same,Productivity,[3]; day 5,13.3 pg of IL-1RII/cell/day
same,Titer of IL-1R-II,[3]; day 5,148.5 mg/L
same,Productivity,[3]; day 7,14.1 pg of IL-1RII/cell/day
same,Titer of IL-1R-II,[3]; day 7,197.5 mg/L
same,Productivity,[3]; day 9,14.9 pg of IL-1RII/cell/day
same,Titer of IL-1R-II,[3]; day 9,238.4 mg/L
